From the supplement of paper PMC4862054

Legend:
Conditions in all cases: incubation time: 72 h
[1] = tested on: BT-474; test: normalised response (% of control), CellTox Green; higher = less cell death (100 = DMSO, 0 = benzethonium chloride kill control)
Outline: (§1)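 Breast cancer cell lines, seeded at 20 µl suspension per well, were incubated for 72 h in 384-well plates containing compound at 5 concentrations. These concentrations rose in 10-fold steps over a 10,000-fold range set for each compound. CellTox Green fluorescence (485/520 nm) was read, then CellTiter-Glo luminescence after 10 min at room temperature, and each plate was normalised to 0.1 % DMSO (100) and a positive kill control (0). Values are normalised signals, each at one concentration.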

[2] = tested on: BT-549; test: as above
Outline: as §1

[3] = tested on: CAL-120; test: as above
Outline: as §1

[4] = tested on: CAL-148; test: as above
Outline: as §1

[5] = tested on: CAL-51; test: as above
Outline: as §1

[6] = tested on: CAL-85-1; test: as above
Outline: as §1

[7] = tested on: DU-4475; test: as above
Outline: as §1

[8] = tested on: HCC1143; test: as above
Outline: as §1

[9] = tested on: HCC1599; test: as above
Outline: as §1

[10] = tested on: HCC1937; test: as above
Outline: as §1

[11] = tested on: HDQ-P1; test: as above
Outline: as §1

[12] = tested on: Hs578T; test: as above
Outline: as §1

[13] = tested on: MCF-10A; test: as above
Outline: as §1

[14] = tested on: MDA-MB-231; test: as above
Outline: as §1

[15] = tested on: MDA-MB-436; test: as above
Outline: as §1

[16] = tested on: MDA-MB-453; test: as above
Outline: as §1

[17] = tested on: MFM-223; test: as above
Outline: as §1

[18] = tested on: BT-474; test: normalised response (% of control), CellTiter-Glo; higher = more viable cells (100 = DMSO, 0 = benzethonium chloride kill control)
Outline: as §1

[19] = tested on: BT-549; test: as above
Outline: as §1

[20] = tested on: CAL-120; test: as above
Outline: as §1

[21] = tested on: CAL-148; test: as above
Outline: as §1

[22] = tested on: CAL-51; test: as above
Outline: as §1

[23] = tested on: CAL-85-1; test: as above
Outline: as §1

[24] = tested on: DU-4475; test: as above
Outline: as §1

[25] = tested on: HCC1143; test: as above
Outline: as §1

[26] = tested on: HCC1599; test: as above
Outline: as §1

[27] = tested on: HCC1937; test: as above
Outline: as §1

[28] = tested on: HDQ-P1; test: as above
Outline: as §1

[29] = tested on: Hs578T; test: as above
Outline: as §1

[30] = tested on: MCF-10A; test: as above
Outline: as §1

[31] = tested on: MDA-MB-231; test: as above
Outline: as §1

[32] = tested on: MDA-MB-436; test: as above
Outline: as §1

[33] = tested on: MDA-MB-453; test: as above
Outline: as §1

[34] = tested on: MDA-MB-468; test: as above
Outline: as §1

[35] = tested on: MFM-223; test: as above
Outline: as §1

[36] = tested on: SK-BR-3; test: as above
Outline: as §1

[37] = tested on: MDA-MB-468; test: normalised response (% of control), CellTox Green; higher = less cell death (100 = DMSO, 0 = benzethonium chloride kill control)
Outline: as §1

SMILES	normalised response [1]	normalised response [2]	normalised response [3]	normalised response [4]	normalised response [5]	normalised response [6]	normalised response [7]	normalised response [8]	normalised response [9]	normalised response [10]	normalised response [11]	normalised response [12]	normalised response [13]	normalised response [14]	normalised response [15]	normalised response [16]	normalised response [17]	normalised response [18]	normalised response [19]	normalised response [20]	normalised response [21]	normalised response [22]	normalised response [23]	normalised response [24]	normalised response [25]	normalised response [26]	normalised response [27]	normalised response [28]	normalised response [29]	normalised response [30]	normalised response [31]	normalised response [32]	normalised response [33]	normalised response [34]	normalised response [35]	normalised response [36]	normalised response [37]
Cc1ccc(Nc2nccc(N(C)c3ccc4c(C)n(C)nc4c3)n2)cc1S(N)(=O)=O [Pazopanib] (100 nM)	96.2%	98.1%	95%	96%	104%	103%	101%	98%	112%	66.2%	109%	107%	72.7%	100%	94.2%	97.4%	104%	107%	102%	95.9%	112%	96.7%	104%	100%	105%	103%	99%	101%	103%	97.3%	98.7%	103%	108%	104%	103%	100%	
Nc1cccc2c1CN(C1CCC(=O)NC1=O)C2=O (configuration not stated) [Lenalidomide] (100 nM)	101%	99.6%	97.4%	104%	76.4%	101%	101%	92.4%	107%		100%	109%	77.9%	105%	107%	100%	107%	103%	103%	93.3%	105%	69.2%	100%	104%	99.1%	111%	95.3%	102%	101%	99.3%	94.3%	93.2%	103%	111%	103%	98.4%	102%
Cc1nc(Nc2ncc(C(=O)Nc3c(C)cccc3Cl)s2)cc(N2CCN(CCO)CC2)n1 [Dasatinib] (10 nM)	102%	111%	100%	93.9%	86.6%	102%	110%	56.7%	97.7%	93.1%	96.7%	84.7%	58.3%	84.2%	98%	106%	98.9%	74.5%	97.2%	93.7%	99.2%	82%	95.7%	99.4%	90.2%	94.3%	90.5%	74.8%	94.3%	71.5%	70.6%	97.1%	99.5%	92.2%	95%	101%	107%
CC/C(=C(\c1ccc(O)cc1)c1ccc(OCCN(C)C)cc1)c1ccccc1 [4-hydroxytamoxifen] (100 nM)	105%	104%	98.8%	99.1%	98.1%	113%	108%	115%	114%	89.2%	87.3%	50.3%	93%	117%	108%	111%	106%	99.1%	107%	105%	99.9%	99%	105%	104%	96.2%	91.5%	95%	95.9%	98%	106%	100%	94.9%	111%	93.2%	99.1%	101%	106%
CO[C@@H](C(=O)N1Cc2[nH]nc(NC(=O)c3ccc(N4CCN(C)CC4)cc3)c2C1)c1ccccc1 [Danusertib] (100 nM)	99%	101%	97.5%	69.4%	62.2%	86.5%	97.1%	111%	102%	93.8%	109%	98.2%	108%		98.2%	97.7%	104%	98.6%	92.7%	89%	57.7%	82.5%	95.5%	100%	91.4%	105%	96.8%	96.4%	97%	84.6%	94.8%	101%	133%	50.5%	67.1%	82.5%	69.6%
CNC(=O)c1cc(Oc2ccc(NC(=O)Nc3ccc(Cl)c(C(F)(F)F)c3)cc2)ccn1 [Sorafenib] (10 nM)	99.3%	108%	96%	103%	106%	102%	98.4%	95.9%	91.9%	66.5%	107%	95%	66.7%	108%	103%	106%	101%	97.8%	108%	112%	107%	95.9%	102%	101%	102%	108%	95.2%	107%	98.8%	108%	105%	105%	100%	115%	106%	103%	97.8%
O=C(Nc1c[nH]nc1-c1nc2ccc(CN3CCOCC3)cc2[nH]1)NC1CC1 [AT9283] (10 nM)	102%	105%	97.7%	106%	61.2%	102%	101%	108%	115%	123%	115%	89.3%	91.8%	98.2%	103%	103%	53.1%	93.8%	94.1%	103%	105%	67.3%	94.8%	101%	109%	95.2%	98.1%	101%	101%	96.9%	100%	105%	97.1%	96.6%	98.2%	93.5%	
COc1cc(CCc2cc(NC(=O)c3ccc(N4CC(C)NC(C)C4)cc3)n[nH]2)cc(OC)c1 (configuration not stated) [AZD4547] (10 nM)	95.9%	106%	102%	51.3%	95%	99.2%	98.2%	91.2%	93.9%	82.4%	104%	103%	79.9%	94.2%	55.9%	104%	92.8%	106%	98.4%	95.8%	99.5%	111%	103%	88.8%	99.3%	104%	94.8%	98.9%	89.8%	90.3%	96.4%	105%	95.7%	98.3%	70.8%	92.3%	158%
Nc1ccccc1NC(=O)c1ccc(CNc2nccc(-c3cccnc3)n2)cc1 [Mocetinostat] (100 nM)	99.1%	99.1%	93.3%		82%	97.4%	99.1%	101%	95.8%		104%	112%	93.1%	89.2%	96.4%	98.1%	97.5%	91.5%	106%	102%	99%	78.3%	93.3%	107%	102%	97.2%	86.1%	88.7%	93.2%	157%	97.5%	90.7%	99.4%	90.6%	92.6%	115%	104%
